Assay results as given in patent US20110105408A1, “THERAPEUTIC PEPTIDES” (INTER-K PTY LIMITED, priority 2008, published 2011).
pIC50: −log10 of the molar value. “Also recorded” adds a separate entry of the source. No end group written: not given here.

Columns and labels:
HT29 colon cancer cells [1] = assay: Cell proliferation (MTT) assay, HT29 cells; assay type: cell-based, human; conditions: for inhibition of proliferation of HT29 cells (MTT): 48 hours culture with dendrimer
Method: (§1) Single cell suspensions of viable trypsinised cells were seeded into 96-well tissue culture plates at a density of 2×10^3 cells per well in a volume of 100 μl of a suitable culture media with foetal calf serum (FCS) (e.g., Dulbecco's Modified Eagles Medium (DMEM), with 10% v/v FCS, glutamine, Hepes, and antibiotics). A set of triplicate wells was prepared for each concentration of the peptide dendrimer being tested. Additional sample wells containing untreated cells or media alone were set up in each treatment plate and processed in parallel as reference controls. A zero-time plate of untreated cells and media-alone wells was simultaneously prepared and an MTT assay carried out on this plate at the time of test peptide dendrimer addition to treatment plates. All plates were cultured for 24 hours before addition of the test dendrimer. To prepare the MTT solution 100 mg of MTT (3-(4,5-dimethylthiazolyl-2)-2,5-diphenyltetrazolium bromide) (Cat #. M-128, Sigma, St Louis Mo.), is mixed with 20 ml of PBS at pH 7.4. The resulting solution is filter sterilized (0.2 μM syringe filter) and stored at 4° C. protected from light until use. MTT substrate is cleaved in growing cells to yield a water insoluble salt. After solubilisation of the salt crystals, a coloured product is produced the measurement of which allows quantitation of the proliferative activity of the cultured cells.
Appropriate concentrations of the test dendrimer were prepared by dilution of freshly prepared sterile 1 mM stock solutions into cell culture media to give a final well volume of 200 μl containing 10% v/v FCS. The zero-plate was processed by addition of MTT at this time. Cell culture was continued for a further 24 or 48 hours before addition of 20 μl of MTT in PBS (5 mg/ml, 0.2 um filter sterilised). The MTT cell proliferation assay measures cell proliferation rate and, in instances where cell viability is compromised, the assay indicates a comparative reduction in cell viability. After a 3 hour incubation in the presence of MTT (5% CO2 in air at 37° C.), plates were centifuged at 450 g for 5 minutes, supernatant removed by gentle suction and precipitated tetrazolium salt resuspended into 150 μl DMSO:glycine (0.1 M glycine, 0.1 M NaCl pH 10.5) (6:1 v/v) solution. Plates were gently vortexed to complete solubilisation of crystalline material and absorbance was read at 540-550 nm using a microplate reader. Sample data were processed to determine the comparative growth of treated samples relative to untreated controls.
HT29 cells were cultured for 48 hours in the presence of selected dendrimers and proliferation of the cells was assessed by MTT assay essentially as described in Example 1.2. The results were calculated as percentage proliferation of control cells (not treated with dendrimer).

[2] = tested on: MKN45 gastric carcinoma cells; assay: Cell proliferation (MTT) assay, MKN45 cells; assay type: cell-based; conditions: 48 hours incubation
Method: as §1, with “To prepare the MTT solution 100 mg of MTT (3-(4,5-dimethylthiazolyl-2)-2,5-diphenyltetrazolium bromide) (Cat #. M-128, Sigma, St Louis Mo.), is mixed with 20 ml of PBS at pH 7.4. The resulting solution is filter sterilized (0.2 μM syringe filter) and stored at 4° C. protected from light until use. MTT substrate is cleaved in growing cells to yield a water insoluble salt.” left out
(§2) Appropriate concentrations of the test dendrimer were prepared by dilution of freshly prepared sterile 1 mM stock solutions into cell culture media to give a final well volume of 200 μl containing 10% v/v FCS. […] Plates were gently vortexed to complete solubilisation of crystalline material and absorbance was read at 540-550 nm using a microplate reader. […]

[3] = tested on: MCF-7 breast cancer cells; assay: Cell proliferation (MTT) assay, MCF-7 cells; assay type: cell-based; conditions: 48 hours incubation
Method: as §1, with “To prepare the MTT solution 100 mg of MTT (3-(4,5-dimethylthiazolyl-2)-2,5-diphenyltetrazolium bromide) (Cat #. M-128, Sigma, St Louis Mo.), is mixed with 20 ml of PBS at pH 7.4. The resulting solution is filter sterilized (0.2 μM syringe filter) and stored at 4° C. protected from light until use. MTT substrate is cleaved in growing cells to yield a water insoluble salt.” left out
as §2

[4] = tested on: DU145 prostate cancer cells; assay: Cell proliferation (MTT) assay, DU145 cells; assay type: cell-based; conditions: 48 hours incubation
Method: as §1, with “To prepare the MTT solution 100 mg of MTT (3-(4,5-dimethylthiazolyl-2)-2,5-diphenyltetrazolium bromide) (Cat #. M-128, Sigma, St Louis Mo.), is mixed with 20 ml of PBS at pH 7.4. The resulting solution is filter sterilized (0.2 μM syringe filter) and stored at 4° C. protected from light until use. MTT substrate is cleaved in growing cells to yield a water insoluble salt.” left out
as §2

[5] = tested on: phospho-ERK in HT29 cells; assay: Phospho-ERK ELISA (FACE ERK1/2 kit) in HT29 cells; assay type: cell-based, human
Method: (§3) HT29 cells were harvested using 0.5% trypsin EDTA (Invitrogen) and 5000 cells were resuspended into 200 μL, and added to each well of a clear NUNC tissue culture treated 96 well plate (NUNC). Cells were seeded in DMEM media (Invitrogen) supplemented with 10% v/v foetal calf serum (FCS, Invitrogen), 1% L-Glutamine (Invitrogen) and 2% 1M HEPES buffer solution (Invitrogen). Cells were then incubated overnight at 37° C. The following day, the growth medium was replaced with 100 μL of serum-free DMEM supplemented with 1% L-glutamine and 2% 1M HEPES buffer solution, and incubated for a further 24 hours at 37° C. Dendrimers were added to test wells in serum free medium to provide final concentrations of the dendrimers ranging from 0.1-20 μLA. The total volume of each well was 200 uL, and cells were incubated at 37° C. for times ranging from 5 minutes to 4 hours. In those studies in which cells were subjected to stimulation by serum, 22 μL FCS (10% v/v final concentration) was added to wells for the final ten minutes of the culture period at 37° C. Serum-free media (SFM) only (22 μL) was added to non-serum stimulated cells.
Phospho-ERK levels were determined using the FACE ERK1/2 ELISA kit according to the manufacturer's instructions (Active Motif, kit obtained from Australian Biosearch, WA, Australia). Briefly, media was replaced and cells fixed with 4% formaldehyde in PBS, and after a 1 hour with antibody blocking buffer (supplied), the primary phospho-ERK or total-ERK antibody was added and incubated overnight at 4° C. Antibody dilution buffer only was added to control test wells containing no primary antibody. The next day, HRP-conjugated secondary antibody was added for one hour before plates were developed and the absorbance measured at 450 nm using a Labsystems Multiskan EX microplate reader (Labsystems, Thermo Labsystems, UK).
The effectiveness of the peptide dendrimer IK248 described in Example 2 in inhibiting growth factor mediated activation of ERK in HT29 cancer cells (i.e., (FCS stimulated) compared to various agents comprising the polypeptide RSKAKNPLYR (SEQ ID No. 6) coupled to different peptide facilitator moieties for facilitating passage of the polypeptide across the plasma cell membrane into the cytosol of the cells was evaluated. Phospho-ERK levels in the cells following treatment with 5 μM IK248 (Dend 8) for 1 hour or polypeptide-facilitator moiety agents (each at 5 μM for the same duration) were measured essentially as described in Example 1.3. The facilitator moieties utilised were the signal peptide fragment AAVALLPAVLLALLA (SEQ ID No. 16), the TAT-G peptide GRKKRRQRRRPPQG (SEQ ID No. 17), a modified pentratin sequence Tr-Pen RRQKWKKG (SEQ ID No. 18), and the penetratin peptide RQIKIWFQNRRMKWKKCS—SC (SEQ ID No. 19) wherein S—S indicates a disulphide bridge between the adjacent cysteine residues.
The peptide RSKAKNPLYR (SEQ ID. No. 6) or peptide dendrimers of the type illustrated in FIG. 3 comprising lysine branching units presenting either 8 (IK248) or 10 (IK248B) monomer units of the peptide RSKAKNPLYR (SEQ ID No. 6) were utilised in this study. Phospho-ERK levels were evaluated by ELISA utilising an Active Motif FACE ERK1/2 ELISA kit (Australian Biosearch, WA, Australia) as described in Example 1.3.

total ERK in HT29 cells = assay: Total-ERK ELISA in HT29 cells; assay type: cell-based, human; conditions: HT29 cells treated with the dendrimer
Method: as §3, with “In those studies in which cells were subjected to stimulation by serum, 22 μL FCS (10% v/v final concentration) was added to wells for the final ten minutes of the culture period at 37° C. Serum-free media (SFM) only (22 μL) was added to non-serum stimulated cells.” left out
Phospho-ERK levels were determined using the FACE ERK1/2 ELISA kit according to the manufacturer's instructions (Active Motif, kit obtained from Australian Biosearch, WA, Australia). […] The next day, HRP-conjugated secondary antibody was added for one hour before plates were developed and the absorbance measured at 450 nm using a Labsystems Multiskan EX microplate reader (Labsystems, Thermo Labsystems, UK).

HT29 colon cancer cells [6] = assay: Cell proliferation (MTT) assay, HT29 cells; assay type: cell-based, human; conditions: 24 hour incubation period

## dendrimer presenting 12 monomer units of the peptide RSKAKNPLYR (SEQ ID No. 6) (also: dendrimer of 12 peptide copies) [Dend 12 10(4)]
HT29 colon cancer cells [1]
  inhibition of proliferation of HT29 cells (MTT): more effective than Dend 9
HT29 colon cancer cells [1]; 48 hours, MTT
  pIC50: 6.00
HT29 colon cancer cells [1]; HT29 cells, 48 hours, MTT
  dendrimer concentration required for total kill: 10 µM

## CC(C)C[C@H](NC(=O)[C@@H]1CCCN1C(=O)[C@H](CC(N)=O)NC(=O)[C@H](CCCCN)NC(=O)[C@H](C)NC(=O)[C@H](CCCCN)NC(=O)[C@H](CO)NC(=O)[C@@H](N)CCCNC(=N)N)C(=O)N[C@@H](Cc1ccc(O)cc1)C(=O)N[C@@H](CCCNC(=N)N)C(=O)NCCCC[C@H](NC(=O)[C@H](CCCNC(=N)N)NC(=O)[C@H](Cc1ccc(O)cc1)NC(=O)[C@H](CC(C)C)NC(=O)[C@@H]1CCCN1C(=O)[C@H](CC(N)=O)NC(=O)[C@H](CCCCN)NC(=O)[C@H](C)NC(=O)[C@H](CCCCN)NC(=O)[C@H](CO)NC(=O)[C@@H](N)CCCNC(=N)N)C(=O)NCCCC[C@H](NC(=O)[C@H](CCCCNC(=O)[C@H](CCCNC(=N)N)NC(=O)[C@H](Cc1ccc(O)cc1)NC(=O)[C@H](CC(C)C)NC(=O)[C@@H]1CCCN1C(=O)[C@H](CC(N)=O)NC(=O)[C@H](CCCCN)NC(=O)[C@H](C)NC(=O)[C@H](CCCCN)NC(=O)[C@H](CO)NC(=O)[C@@H](N)CCCNC(=N)N)NC(=O)[C@H](CCCNC(=N)N)NC(=O)[C@H](Cc1ccc(O)cc1)NC(=O)[C@H](CC(C)C)NC(=O)[C@@H]1CCCN1C(=O)[C@H](CC(N)=O)NC(=O)[C@H](CCCCN)NC(=O)[C@H](C)NC(=O)[C@H](CCCCN)NC(=O)[C@H](CO)NC(=O)[C@@H](N)CCCNC(=N)N)C(=O)NCCCC[C@H](NC(=O)[C@H](CCCCNC(=O)[C@H](CCCCNC(=O)[C@H](CCCNC(=N)N)NC(=O)[C@H](Cc1ccc(O)cc1)NC(=O)[C@H](CC(C)C)NC(=O)[C@@H]1CCCN1C(=O)[C@H](CC(N)=O)NC(=O)[C@H](CCCCN)NC(=O)[C@H](C)NC(=O)[C@H](CCCCN)NC(=O)[C@H](CO)NC(=O)[C@@H](N)CCCNC(=N)N)NC(=O)[C@H](CCCNC(=N)N)NC(=O)[C@H](Cc1ccc(O)cc1)NC(=O)[C@H](CC(C)C)NC(=O)[C@@H]1CCCN1C(=O)[C@H](CC(N)=O)NC(=O)[C@H](CCCCN)NC(=O)[C@H](C)NC(=O)[C@H](CCCCN)NC(=O)[C@H](CO)NC(=O)[C@@H](N)CCCNC(=N)N)NC(=O)[C@H](CCCCNC(=O)[C@H](CCCNC(=N)N)NC(=O)[C@H](Cc1ccc(O)cc1)NC(=O)[C@H](CC(C)C)NC(=O)[C@@H]1CCCN1C(=O)[C@H](CC(N)=O)NC(=O)[C@H](CCCCN)NC(=O)[C@H](C)NC(=O)[C@H](CCCCN)NC(=O)[C@H](CO)NC(=O)[C@@H](N)CCCNC(=N)N)NC(=O)[C@H](CCCNC(=N)N)NC(=O)[C@H](Cc1ccc(O)cc1)NC(=O)[C@H](CC(C)C)NC(=O)[C@@H]1CCCN1C(=O)[C@H](CC(N)=O)NC(=O)[C@H](CCCCN)NC(=O)[C@H](C)NC(=O)[C@H](CCCCN)NC(=O)[C@H](CO)NC(=O)[C@@H](N)CCCNC(=N)N)C(=O)NCCC(N)=O [IK248]
[2]
  inhibition of growth/proliferation of MKN45 gastric carcinoma cells: inhibited growth/proliferation
[3]
  inhibition of growth/proliferation of MCF-7 breast cancer cells: inhibited growth/proliferation
[4]
  inhibition of growth/proliferation of DU145 prostate cancer cells: inhibited growth/proliferation
[5]; 5 μM, 1 hour, FCS stimulated HT29 cells
  greater inhibition of activated phospho-ERK than the closest test agent (TAT-G RSKAKNPLYR): at least 30%
[5]; 5 μM, 4 hours, FCS stimulated HT29 cells (data not shown)
  inhibition of activated phospho-ERK: approx. 95%
[5]; HI FCS stimulated, 20 μM, 1 hour incubation
  phospho-ERK level in FCS stimulated cells: lower than in non-FCS stimulated cells treated with the dendrimer, but remained higher than phospho-ERK basal levels in control cells not treated with the dendrimer
[5]; not FCS stimulated, 1 μM-10 μM, 4 hr incubation
  basal phospho-ERK level relative to control cells: incease relative to control cells
[5]; not FCS stimulated, 5 μM, 5, 10 and 30 minutes, and 1 hour
  basal phospho-ERK level compared to control cells, time course: markedly increased phospho-ERK levels at all time points evaluated
Total ERK in HT29 cells
  total ERK levels: remained essentially unaffected
HT29 colon cancer cells [6]
  inhibition of proliferation of HT29 colon cancer cells (MTT): inhibit proliferation of HT29 colon cancer cells; also recorded: substantially more effective at inhibiting cell growth/proliferation than the peptide dendrimer comprising 4 monomers of the polypeptide

## Dend8 β3: peptide dendrimer presenting 8 monomer units of the β3 based peptide RARAKNPLYK (SEQ ID No. 7) (also: dendrimer of 8 peptide copies)
HT29 colon cancer cells [1]
  inhibition of proliferation of HT29 cells (MTT): inhibited proliferation of the HT29 cancer cells

## Dend8 β5: peptide dendrimer presenting 8 monomer units of the β5 based peptide RSRARNPLYR (SEQ ID No. 8) (also: dendrimer of 8 peptide copies)
HT29 colon cancer cells [1]
  inhibition of proliferation of HT29 cells (MTT): inhibited proliferation of the HT29 cancer cells; also recorded: more effective

## Dend 4: peptide dendrimer comprising 4 monomer units of the polypeptide RSKAKNPLYR (SEQ ID No. 6) (also: dendrimer of 4 peptide copies)
HT29 colon cancer cells [6]
  inhibition of proliferation of HT29 colon cancer cells (MTT): inhibit proliferation of HT29 colon cancer cells

## Dend 9 10(4): dendrimer presenting 9 monomer units of the peptide RSKAKNPLYR (SEQ ID No. 6) (also: dendrimer of 9 peptide copies)
HT29 colon cancer cells [1]
  inhibition of proliferation of HT29 cells (MTT): Dend 12 was more effective than Dend 9
